Experimental data published in US9314485B2, “Use of PI3K M-TOR and AKT inhibitors to induce FOXP3 expression and generate regulatory T cells” (Medical Research Council, priority 2006, dated 2016).
“Also recorded” adds a separate entry of the source.

Assays:
Akt = experiment: pAkt (S473) immunoblot in activated CD4 T cells; format: cell-based, mouse; conditions: 18 h activated T cells
Description: To monitor the activity of the PI3K/mTOR axis in newly activated CD4 T cells we analysed phosphorylation of S6 ribosomal protein (pS6), a target of the mTOR-regulated p70 S6 kinase S6K1. TCR/CD28 signaling (but not anti-CD28 alone) induced high levels of pS6 (FIG. 10a). The maintenance of mTOR activity in 18 hour activated T cells required continued TCR signaling, since S6 phosphorylation declined when TCR signals were withdrawn (FIG. 10b). […] The serine/threonine protein kinase Akt/PKB is rapidly phosphorylated in response to signaling through TCR/CD28 but, in contrast to pS6, pAkt (S473) was no longer detected 18 h after initiation of TCR/CD28 signaling (FIG. 10c). […] Increased Akt phosphorylation in response to TCR signal deprivation and rapamycin treatment is incompatible with a traditional linear signaling pathway (FIG. 10d) but consistent with a network model in which Akt activity is controlled both by PDK1 and by mTORC2. In this model, mTORC2 (mTOR/rictor/Sin 1) is under negative feedback control of mTORC1 (mTOR/raptor) via S6K1, which phosphorylates and inhibits IRS1 (insulin receptor substrate 1) and reduces Akt activation via PI3K, PDK1 and mTORC2 (FIG. 10e). Applied to our data, withdrawal of TCR signaling lowers mTORC1 and S6K1 activity (FIG. 10b), which reduces feedback inhibition of mTORC2 and explains the observed increase in pAkt (S473) (FIG. 10c). […]

[1] = system: naive CD62LhiCD4+CD25− LN T cells; experiment: Foxp3 induction in newly activated naive CD4 T cells (intracellular staining); format: cell-based, mouse

Substance: TGFβ
- pAkt (S473) (Akt): reappeared; also recorded: increased pAkt S473
- percentage of cells expressing Foxp3 ([1]; added 18 hours after activation with TCR signal deprivation, read within 24-48 hours): 46.0±15.1%
- % Foxp3+ cells, activation with anti-TCR only ([1]; no costimulation, average of two experiments): 7%
- Foxp3 expression in control cultures, TCR signal deprived cultures subtracted ([1]; serum free AIM-V medium, without anti TGFβ and SB431542, 24-48 hours / 2 days): 22.3±7.0%
- % Foxp3+ cells, activation with anti-TCR + anti-CD28 ([1]; with costimulation, average of two experiments): 46%
